# Where “and” joins values, the source holds several entries; their conditions need not be identical. Equal entries are not always repeated. Entries after “also recorded” stand apart in the source; their conditions may differ.
# Assays:
# MIF [1] = target: T1, MIF (Homo sapiens, UniProt P14174); experiment: MIF degradation in A549 cells, cell lysate-based ELISA; set-up: endogenous in cells; host or cells: A549 (ATCC CCL-185); conditions: 12 h, vs DMSO, mean±SD n=3
# T1 sequence (P14174 2-115 limits assumed): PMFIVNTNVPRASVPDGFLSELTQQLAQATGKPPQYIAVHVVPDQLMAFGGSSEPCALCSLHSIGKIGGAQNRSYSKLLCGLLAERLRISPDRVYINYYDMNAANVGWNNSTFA
# A549 cells [2] = experiment: CyQUANT cell proliferation assay; type: cell-based, human; conditions: 72 hours; for effect on cell proliferation: concentrations up to 20 μM
# Method: S8. Cell growth, cell cycle and pERK signaling study
# Cell proliferation was measured with the CyQUANT® Direct Cell Proliferation Assay Kit (Thermo Fisher, #C35011). A549 cells were cultured in 96-well plates at a density of 1,000 cells/well and treated with different concentrations of MIF PROTAC (0.02-20 μM) for 72 h.
# Cells were incubated with detection reagent (100 μL) for 60 min at 37 °C with 5% CO2. The fluorescence of each well was read at 485/535nm by plate reader (BioTek).
# Figure S8. Cells were seeded with a density of 1000 cells per well in a 96-well plate. After overnight incubation, the cells were treated with various concentration of MD13 for 72 hours.
# The resulting cells were quantified by CyQUANT® cell proliferation assays and compared with the vehicle (DMSO) control (n=3). […]
# (also on this page, place not known: (0.02 -20 CO 2. (20 µM) 4 (20 µM) µM 20 µM 0.01 µM 0.08 µM 0.74 µM 6.7 µM 20 µM 0 50 100 Cell (%) H441 n.s. * * ** *** * n.s. MD15 96 -well MD13 proliferation control 96 -well round - 2 3) […]
# (§1) (1 picture or pasted object on this page, not shown here)
# MIF [3] = target: T1, MIF; experiment: MIF catalyzed 4-HPP tautomerization assay; type: biochemical; conditions: for IC50: 4-HPP conversion assay; for Ki: MIF catalyzed 4-HPP tautomerization, n=3
# Method: S2. MIF Tautomerase activity IC50 study
# The protocol for measuring inhibition of MIF tautomerase enzyme activity and enzyme kinetics was described previously.[8] Briefly, 180 µL of a 500 nM MIF solution in boric acid buffer (435 mM, pH 6.2) was mixed with 10 µL of a 20 mM EDTA solution in demiwater and 10 µL of a solution of the desired compound dissolved in DMSO or blanc DMSO. This mixture was pre-incubated at room temperature for 10 min. Next, 50 µL of this mixture was mixed with 50 µL of a 1 mM 4-HPP solution in ammonium acetate buffer (50 mM, pH 6.0). Subsequently, MIF tautomerase activity was monitored by measuring the increase of UV absorbance at 306 nm over time. MIF tautomerase activity in the presence a blank DMSO dilution was set to 100% enzyme activity. Non-catalyzed conversion of the substrate in absence of MIF was set to 0%.
# Data from the first three minutes were used to calculate the initial velocities. All experiments were repeated three times and calculations were performed with the program GraphPad Prism.
# Table S1. 4-HPP conversion assay results of MIF PROTACs
# (also on this page, place not known: p rotocol previously. subs trate log [MD-1] (10^-6 M) Activity of MIF tautomerase(%) -2 -1 0 1 2 0 50 100 log [MD-2] (10^-6 M) Activity of MIF tautomerase(%) -2 -1 0 1 2 0 50 100)
# A549 cells [4] = experiment: Cell cycle analysis by flow cytometry (propidium iodide); type: cell-based, human; conditions: 48 h; for proportion of cells at the G2/M phase: control group 12 %
# Method: The effect of MIF‐directed PROTAC MD13 on cell cycle progression was further analyzed using flow cytometry (Figure 6). A549 cells were treated with MD13 at concentrations of 1, 2, or 5 μM for the duration of 48 h before analysis using flow cytometry. […] The proportion of cells at the G2/M phase is 12 % for the control group. This percentage increases to 17 %, 19 %, and 23 % upon treatment with 1, 2, and 5 μM MD13, respectively. […]
# Flow cytometry. For cell cycle analysis, A549 cells were seeded in 6 -well plates at a density of 1x10^5 per well. The next day, the cells were treated with the appropriate compound or vehicle for 48h. Subsequently, the cells were washed with PBS (3 ×) and then harvested after trypinzation. After centrifugation at 300g, the cells were incubated with a solutio n containing 20 µg/ml propidium iodide (PI) (Sigma, P4864) and 0.1% (v/v) Triton -X100 (Sigma, T8787) for 15 min at room temperature. Fluorescence was detected by a Cytoflex flow cytometer […]
# as §1
# (Beckman Coulter, Woerden, the Netherlands) immediately. 30,000 cells were collected for each sample. Data were analyzed using FlowJo software (Tree start, Ashland, USA). […]
SMILES,degradation [%] 0.2 μM (MIF [1]),effect on cell proliferation (A549 cells [2]),IC50 (MIF [3]) [nM],Ki (MIF [3]) [nM],effect on the cell cycle (A549 cells [4]; 5 μM),"inhibition at 20 µM (A549 cells [2]; Homo sapiens, 20 μM, 2D culture) [%]",proportion of cells at the G2/M phase (A549 cells [4]; 1 μM) [%],proportion of cells at the G2/M phase (A549 cells [4]; 2 μM) [%],proportion of cells at the G2/M phase (A549 cells [4]; 5 μM) [%]
CN1C(=O)CCC(N2C(=O)c3cccc(NCCCCCCCC(=O)Nc4ccc(N5Cc6ccc(O)cc6OC5=O)cc4)c3C2=O)C1=O (centres unmarked) [MD15],not capable of inducing MIF degradation and n.s.,almost no inhibition; also recorded: no or little effect,83 ± 18,55 ± 12,little or no effect,,,,
COc1ccc(N2Cc3ccc(O)cc3OC2=O)cc1OC [compound 3],,no effect; also recorded: no or little effect,,103 ± 10,,,,,
O=C1CCC(N2C(=O)c3cccc(NCCCCCCCC(=O)Nc4ccc(N5Cc6ccc(O)cc6OC5=O)cc4)c3C2=O)C(=O)N1 (centres unmarked) [MD13],71% and 71±7%,,106 ± 7,71 ± 5,,~50,17,19,23

# Source: article PMC8362126, “Proteolysis Targeting Chimera (PROTAC) for Macrophage Migration Inhibitory Factor (MIF) Has Anti‐Proliferative Activity in Lung Cancer Cells” (Angewandte Chemie (International Ed. in English), 2021)
